From patent publication US20230192700A1, “PYRAZOLOPYRAZINES ACTING ON CANCERS VIA INHIBITION OF CDK12” (Bayer Aktiengesellschaft, priority 2020, published 2023) come the findings set out here.

Each structure is given as a SMILES string. A value given as a limit tells only on which side of the number the result lay.

For this experiment, the target named is T1, CDK12/CyclinK (Homo sapiens, UniProt Q9NYV4).
T1 construct: His-CDK12 (aa Q696-S1082); made in house; host or cells: Hi-5 insect cells (baculovirus co-infection with CycK and yeast CAK1)
T1 sequence (Q9NYV4 with tags, fused parts or gaps): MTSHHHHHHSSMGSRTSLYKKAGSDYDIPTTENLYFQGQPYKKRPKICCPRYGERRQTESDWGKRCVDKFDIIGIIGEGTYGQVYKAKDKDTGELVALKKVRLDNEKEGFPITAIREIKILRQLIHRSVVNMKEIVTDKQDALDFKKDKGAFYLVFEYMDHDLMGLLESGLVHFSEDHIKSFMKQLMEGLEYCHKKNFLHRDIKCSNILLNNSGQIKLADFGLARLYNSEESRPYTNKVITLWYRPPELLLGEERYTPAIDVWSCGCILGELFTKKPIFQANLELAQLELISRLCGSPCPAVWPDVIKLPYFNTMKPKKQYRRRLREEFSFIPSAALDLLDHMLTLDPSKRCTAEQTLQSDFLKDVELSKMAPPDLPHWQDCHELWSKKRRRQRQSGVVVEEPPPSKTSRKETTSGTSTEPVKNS
T1 sequence (O75909 with tags, fused parts or gaps partner limits assumed): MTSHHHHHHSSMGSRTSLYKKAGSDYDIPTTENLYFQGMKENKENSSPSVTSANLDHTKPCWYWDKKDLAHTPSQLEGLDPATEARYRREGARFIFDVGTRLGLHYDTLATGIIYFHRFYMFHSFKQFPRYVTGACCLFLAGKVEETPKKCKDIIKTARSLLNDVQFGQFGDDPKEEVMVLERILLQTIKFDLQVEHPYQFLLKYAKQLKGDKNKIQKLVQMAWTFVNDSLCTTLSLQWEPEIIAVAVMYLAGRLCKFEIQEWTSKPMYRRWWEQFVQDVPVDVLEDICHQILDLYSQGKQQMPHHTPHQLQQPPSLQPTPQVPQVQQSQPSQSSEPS
Kind of experiment: CDK12/CycK high ATP kinase assay (TR-FRET). Format: biochemical. Particulars: 2 mM ATP (high ATP); median; read-out: CDK12/CyclinK, 2 mM ATP (high ATP), IC50 - [mol/l] (median). The text has this: 2.2 CDK12/CycK high ATP Kinase Assay
In the context of the present invention, the term “IC50 CDK12 hATP” refers to the ICso values obtained according to the assay described in this section (2.2) herein below, i.e. the IC50 values for the inhibition of CDK12 at high ATP.
CDK12/CycK -inhibitory activity of compounds of the present invention at 2 millimol/L adenosine-tri-phosphate (ATP) was quantified employing the TR-FRET (TR-FRET=Time Resolved Fluorescence Energy Transfer) based CDK12/CycK activity inhibition assay as described in the following paragraphs.
A complex of human recombinant CDK12 and human recombinant CycK (both N-terminally His-tagged, expression and purification as described above) was used as enzyme. As substrate for the kinase reaction biotinylated peptide biotin-Ahx-KFELLPTPPLSPSRRSGL (C-terminus in amid form) was used which can be purchased e.g. form the company Biosyntan (Berlin-Buch, Germany).
For the assay 50 nanoL of a 100 fold concentrated solution of the test compound in DMSO was pipetted into either a black low volume 384 well microtiter plate or a black 1536 well microtiter plate (both Greiner Bio-One, Frickenhausen, Germany), 2 microL of a solution of CDK12/CycK in aqueous assay buffer [25 millimol/L HEPES pH 7.5, 20 millimol/L MgCl2, 5 millimol/L β-glycerophosphate, 2 millimol/L EGTA, 1.0 millimol/L dithiothreitol, 0.01% (v/v) Nonidet-P40 (Sigma), 0.01% (w/v) bovine serum albumin] were added and the mixture was incubated for 15 min at 22° C. to allow pre-binding of the test compounds to the enzyme before the start of the kinase reaction. Then the kinase reaction was started by the addition of 3 microL of a solution ATP (3.33 millimol/L=>final conc. in the 5 microL assay volume is 2 millimol/L) and substrate (1.67 micromol/L=>final conc. in the 5 microL assay volume is 1 micromol/L) in assay buffer and the resulting mixture was incubated for a reaction time of 60 min at 22° C. The concentration of CDK12/CycK was adjusted depending of the activity of the enzyme lot and was chosen appropriate to have the assay in the linear range, typical concentrations were about 0.75 nanomol/L. The reaction was stopped by the addition of 3 microL of a solution of TR-FRET detection reagents (125 nanomol/L streptavidine-XL665 [Cisbio Bioassays, Codolet, France] and 0.67 nanomol/L anti-Phospho-c-Myc (Ser 62) (E1J4K)-antibody from Cell Signalling [#13748] and 2 nanomol/L LANCE EU-W1024 labeled anti-rabbit IgG antibody [Perkin-Elmer, product no. 0083]) in an aqueous EDTA-solution (133 millimol/L EDTA, 0.27% (w/v) bovine serum albumin in 66.7 millimol/L HEPES pH 7.5).
The resulting mixture was incubated 1 h at 22° C. to allow the formation of complex between the phosphorylated biotinylated peptide and the detection reagents. Subsequently the amount of phosphorylated substrate was evaluated by measurement of the resonance energy transfer from the Eu-chelate to the streptavidine-XL. Therefore, the fluorescence emissions at 620 nm and 665 nm after excitation at 350 nm was measured in a TR-FRET reader, e.g. a Pherastar FS (BMG Labtechnologies, Offenburg, Germany) or a Viewlux (Perkin-Elmer). The ratio of the emissions at 665 nm and at […] was taken as the measure for the amount of phosphorylated substrate. The data were normalised (enzyme reaction without inhibitor=0% inhibition, all other assay components but no enzyme=100% inhibition).
As for `CC(C)(O)C1CC(n2nc(NCc3nc4ccccc4[nH]3)c3ncc(C4CC4)nc32)C1` (mixture of isomers) [Example 48, 2-[cis/trans-3-(3-{[(1H-benzimidazol-2-yl)methyl]amino}-6-cyclopropyl-1H-pyrazolo[3,4-b]pyrazin-1-yl)cyclobutyl]propan-2-ol], the IC50 was determined as 13.7 µM.
In the case of `c1ccc2[nH]c(CNc3nn(C4CCOC4)c4nc(C5CC5)cnc34)nc2c1` (racemic) [Example 10, (±)-N-[(1H-benzimidazol-2-yl)methyl]-6-cyclopropyl-1-[oxolan-3-yl]-1H-pyrazolo[3,4-b]pyrazin-3-amine], the IC50 was more than 20 µM.
Next, `CN1CCCC(n2nc(NCc3nc4ccccc4[nH]3)c3ncc(C4CC4)nc32)CC1` (racemic) [Example 34, (±)-N-[(1H-benzimidazol-2-yl)methyl]-6-cyclopropyl-1-(1-methylazepan-4-yl)-1H-pyrazolo[3,4-b]pyrazin-3-amine]: more than 20 µM; `CN1CCC(n2nc(NCc3nc4ccccc4[nH]3)c3ncc(C4CC4)nc32)C1` (racemic) [Example 35, (±)-N-[(1H-benzimidazol-2-yl)methyl]-6-cyclopropyl-1-(1-methylpyrrolidin-3-yl)-1H-pyrazolo[3,4-b]pyrazin-3-amine]: more than 20 µM.
For the molecule `CC1CC(n2nc(NCc3nc4ccccc4[nH]3)c3ncc(C4CC4)nc32)CCN1C` (racemic) [Example 41, (±)-cis/trans-N-[(1H-benzimidazol-2-yl)methyl]-6-cyclopropyl-1-(1,2-dimethylpiperidin-4-yl)-1H-pyrazolo[3,4-b]pyrazin-3-amine], the IC50 is more than 20 µM.
With `CC1COCCC1n1nc(NCc2nc3ccccc3[nH]2)c2ncc(C3CC3)nc21` (racemic) [Example 42, (±)-cis/trans-N-[(1H-benzimidazol-2-yl)methyl]-6-cyclopropyl-1-(3-methyloxan-4-yl)-1H-pyrazolo[3,4-b]pyrazin-3-amine], the IC50 was more than 20 µM.
As for `COCCC(C)n1nc(NCc2nc3ccccc3[nH]2)c2ncc(C3CC3)nc21` (racemic) [Example 57, (±)-N-[(1H-benzimidazol-2-yl)methyl]-6-cyclopropyl-1-(4-methoxybutan-2-yl)-1H-pyrazolo[3,4-b]pyrazin-3-amine], the IC50 is more than 20 µM.
Next, `CC(CCN(C)C)n1nc(NCc2nc3ccccc3[nH]2)c2ncc(C3CC3)nc21` (racemic) [Example 62, (±)-N-[(1H-benzimidazol-2-yl)methyl]-6-cyclopropyl-1-[4-(dimethylamino)butan-2-yl]-1H-pyrazolo[3,4-b]pyrazin-3-amine]: more than 20 µM; `c1ccc2[nH]c(CNc3nn(C4CCOC4)c4nc(C5CC5)cnc34)nc2c1` (single isomer, unassigned) [Example 17, (+) or (−)-N-[(1H-benzimidazol-2-yl)methyl]-6-cyclopropyl-1-(oxolan-3-yl)-1H-pyrazolo[3,4-b]pyrazin-3-amine]: more than 20 µM; `c1ccc2[nH]c(CNc3nn(C4CCOC4)c4nc(C5CC5)cnc34)nc2c1` (single isomer, unassigned) [Example 18, (-) or (+) -N-[(1H-benzimidazol-2-yl)methyl]-6-cyclopropyl-1-[oxolan-3-yl]-1H-pyrazolo[3,4-b]pyrazin-3-amine]: more than 20 µM.
Take `CN1CCCC(n2nc(NCc3nc4ccccc4[nH]3)c3ncc(C4CC4)nc32)CC1` (single isomer, unassigned) [Example 37, (+) or (−)-N-[(1H-benzimidazol-2-yl)methyl]-6-cyclopropyl-1-[(4R*)-1-methylazepan-4-yl]-1H-pyrazolo[3,4-b]pyrazin-3-amine]: the IC50 is more than 20 µM.
For the molecule `CN1CCCC(n2nc(NCc3nc4ccccc4[nH]3)c3ncc(C4CC4)nc32)CC1` (single isomer, unassigned) [Example 38, (−) or (+)-N-[(1H-benzimidazol-2-yl)methyl]-6-cyclopropyl-1-[(4R*)-1-methylazepan-4-yl]-1H-pyrazolo[3,4-b]pyrazin-3-amine], the IC50 is more than 20 µM.
Regarding `CC(CCN(C)C)n1nc(NCc2nc3ccccc3[nH]2)c2ncc(C3CC3)nc21` (single isomer, unassigned) [Example 63, (+) or (−)-N-[(1H-benzimidazol-2-yl)methyl]-6-cyclopropyl-1-[4-(dimethylamino)butan-2-yl]-1H-pyrazolo[3,4-b]pyrazin-3-amine], the IC50 is more than 20 µM.
`CC(CCN(C)C)n1nc(NCc2nc3ccccc3[nH]2)c2ncc(C3CC3)nc21` (single isomer, unassigned) [Example 64, (−) or(+)-N-[(1H-benzimidazol-2-yl)methyl]-6-cyclopropyl-1-[4-(dimethylamino)butan-2-yl]-1H-pyrazolo[3,4-b]pyrazin-3-amine]: the IC50 was more than 20 µM.
For the molecule `CN1CCC(n2nc(NCc3nc4ccccc4[nH]3)c3ncc(C4CC4)nc32)C1` (single isomer, unassigned) [Example 78, (+) or (−)-N-[(1H-benzimidazol-2-yl)methyl]-6-cyclopropyl-1-(1-methylpyrrolidin-3-yl)-1H-pyrazolo[3,4-b]pyrazin-3-amine], the IC50 is more than 20 µM.
With `CN1CCC(n2nc(NCc3nc4ccccc4[nH]3)c3ncc(C4CC4)nc32)C1` (single isomer, unassigned) [Example 79, (−) or (+)-N-[(1H-benzimidazol-2-yl)methyl]-6-cyclopropyl-1-(1-methylpyrrolidin-3-yl)-1H-pyrazolo[3,4-b]pyrazin-3-amine] the figure was more than 20 µM; with `COCCC(C)n1nc(NCc2nc3ccccc3[nH]2)c2ncc(C3CC3)nc21` (single isomer, unassigned; (+)) [Example 59, (+)-N-[(1H-benzimidazol-2-yl)methyl]-6-cyclopropyl-1-[4-methoxybutan-2-yl]-1H-pyrazolo[3,4-b]pyrazin-3-amine], more than 20 µM.
Regarding `COCCC(C)n1nc(NCc2nc3ccccc3[nH]2)c2ncc(C3CC3)nc21` (single isomer, unassigned; (-)) [Example 58, (−)-N-[(1H-benzimidazol-2-yl)methyl]-6-cyclopropyl-1-[4-methoxybutan-2-yl]-1H-pyrazolo[3,4-b]pyrazin-3-amine], the IC50 is more than 20 µM.
As to `CN1CCC(n2nc(NCc3nc4ccccc4[nH]3)c3ncc(C4CC4)nc32)CC1` [Example 1, N-[(1H-benzimidazol-2-yl)methyl]-6-cyclopropyl-1-(1-methylpiperidin-4-yl)-1H-pyrazolo[3,4-b]pyrazin-3-amine], the IC50 is more than 20 µM.
As to `COc1cccc2[nH]c(CNc3nn(C4CCN(C)CC4)c4nc(C5CC5)cnc34)nc12` [Example 2, 6-cyclopropyl-N-[(4-methoxy-1H-benzimidazol-2-yl)methyl]-1-(1-methylpiperidin-4-yl)-1H-pyrazolo[3,4-b]pyrazin-3-amine], the IC50 is more than 20 µM.
As for `CN1CCC(n2nc(NCc3nc4c(F)cccc4[nH]3)c3ncc(C4CC4)nc32)CC1` [Example 3, 6-cyclopropyl-N-[(4-fluoro-1H-benzimidazol-2-yl)methyl]-1-(1-methylpiperidin-4-yl)-1H-pyrazolo[3,4-b]pyrazin-3-amine], the IC50 is not below 11.6 µM.
As to `CN1CCC(n2nc(NCc3nc4cc(F)ccc4[nH]3)c3ncc(C4CC4)nc32)CC1` [Example 4, 6-cyclopropyl-N-[(5-fluoro-1H-benzimidazol-2-yl)methyl]-1-(1-methylpiperidin-4-yl)-1H-pyrazolo[3,4-b]pyrazin-3-amine], the IC50 was more than 20 µM.
In the case of `Cc1ccc2[nH]c(CNc3nn(C4CCN(C)CC4)c4nc(C5CC5)cnc34)nc2c1` [Example 6, 6-cyclopropyl-N-[(5-methyl-1H-benzimidazol-2-yl)methyl]-1-(1-methylpiperidin-4-yl)-1H-pyrazolo[3,4-b]pyrazin-3-amine], the IC50 was more than 20 µM.
